In article PMC6029275, “Cytotoxic properties of the anthraquinone derivatives isolated from the roots of Rubia philippinensis” (BMC Complementary and Alternative Medicine, 2018):

Assays:
Assay type in all cases: cell-based
[1] = test system: SK-MEL-5 (human melanoma); experiment: MTT cytotoxicity assay, SK-MEL-5; conditions: for IC50: MTT, 24 h treatment, mean ± SD; for Selectivity index SK-MEL-5 (column head IC50 (μM)): ratio of IC50 on MDCK cells to IC50 in SK-MEL-5
Protocol: (§1) The potential cytotoxicity of the isolated anthraquinone derivatives was studied against various cancer cell lines, including SK-MEL-5 (human melanoma), B16F10 (murine melanoma) MCF7 (human breast adenocarcinoma), and MDA-MB-231 (human breast adenocarcinoma) and the normal cell line MDCK (normal kidney epithelial) using the MTT assay. All cell lines were cultured in DMEM medium supplemented with 10% foetal bovine serum (FBS) and streptomycin–penicillin (100 μg/ml each; Hyclone) in a 5% CO2 humidified incubator. An MTT assay was employed to determine the percentage of the viability of various cancer cells as well as MDCK cells. All cells were first cultured in 96-well plates (1 × 10^5 cells/mL for all cancerous cells and 5 × 10^5 cells/mL for MDCK cells) for 24 h, and treated with indicated concentration of isolated compounds (6.25–100 μM for cancerous cells and 6.25–400 μM for MDCK cells). Various dilutions of stock culture were made in the culture medium to get the final concentration of the sample with a 0.1% of DMSO concentration, including the control. After 24 h incubation, MTT reagent was added to each well and the plate was incubated at 37 °C for 1 h. After removing the medium, the plate was washed twice with PBS (pH 7.4). The intracellular insoluble formazan was dissolved in 100% DMSO. A microplate reader was used to measure the absorbance of each cell line at 570 nm, and the percentage of cell viability was calculated. The absorbance value for the average of wells of cells treated with each test sample concentration was expressed as a percentage of this control and the IC50 values for each sample on each cell line were calculated. The anti-cancer drug oxaloplatin was used as a positive control.

B16F10 (murine melanoma) = experiment: MTT cytotoxicity assay, B16F10; conditions: for IC50: MTT, 24 h treatment, mean ± SD; for Selectivity index B16F10 (column head IC50 (μM)): ratio of IC50 on MDCK cells to IC50 in B16F10
Protocol: as §1

[2] = test system: MCF7 (human breast adenocarcinoma); experiment: MTT cytotoxicity assay, MCF7; conditions: for IC50: MTT, 24 h treatment, mean ± SD; for Selectivity index MCF7 (column head IC50 (μM)): ratio of IC50 on MDCK cells to IC50 in MCF7
Protocol: as §1

[3] = test system: MDA-MB-231 (human breast adenocarcinoma); experiment: MTT cytotoxicity assay, MDA-MB-231; conditions: for IC50: MTT, 24 h treatment, mean ± SD; for Selectivity index MDA-MB-231: ratio of IC50 on MDCK cells to IC50 in MDA-MB-231
Protocol: as §1

[4] = test system: MDCK (normal kidney epithelial cells); experiment: MTT cytotoxicity assay, normal cell line MDCK; conditions: 24 h treatment, mean ± SD
Protocol: as §1

SMILES | IC50 [1] | IC50 (B16F10 (murine melanoma)) | IC50 [2] | IC50 [3] | IC50 [4] | IC50 ([1]; Homo sapiens, SK-MEL-5) | Selectivity index SK-MEL-5 (column head IC50 (μM)) [1] | IC50 (B16F10 (murine melanoma); Mus musculus, B16-F10) | Selectivity index B16F10 (column head IC50 (μM)) (B16F10 (murine melanoma)) | IC50 ([2]; Homo sapiens, MCF7) | Selectivity index MCF7 (column head IC50 (μM)) [2] | IC50 ([3]; Homo sapiens, MDA-MB-231) | Selectivity index MDA-MB-231 [3] | IC50 ([4]; Canis lupus familiaris, MDCK)
O=C1[O][Pt]2([NH][C@@H]3CCCC[C@H]3[NH]2)[O]C1=O [Oxaloplatin, oxaloplatin, reference compound] | 14.2 ± 1.02 µM | 10.5 ± 0.92 µM | 8.59 ± 1.22 µM | 7.95 ± 1.92 µM | 24 ± 1.04 µM |  |  |  |  |  |  |  |  | 
COCc1c(O)cc2c(c1O)C(=O)c1ccccc1C2=O [Compound 5, lucidin-ω-methyl ether] |  |  |  |  |  | 42.8 ± 1.32 µM | 1.85 | 29.5 ± 2.61 µM | 2.68 | 24.1 ± 1.06 µM | 3.28 | 13 ± 0.33 µM | 6.06 | 79.01 ± 0.03 µM
Cc1c(O)cc2c(c1O)C(=O)c1ccc(O)cc1C2=O [Compound 2, 2-methyl-1,3,6-trihydroxy-9,10-anthraquinone] |  |  |  |  |  | 46.8 ± 1.39 µM | 3.61 | 77.88 ± 0.34 µM | 2.17 | 80 ± 1.14 µM | 2.11 | 59.22 ± 0.4 µM | 2.85 | 168.8 ± 0.61 µM
O=C1c2ccccc2C(=O)c2c1ccc(O)c2O [Compound 3, alizarin] |  |  |  |  |  | 53.08 ± 0.3 µM |  | 98.8 ± 2.1 µM |  | 49.2 ± 0.85 µM |  | 48.64 ± 0.33 µM |  | 199.3 ± 1.88 µM
O=C1c2ccccc2C(=O)c2c(O)cc(O)cc21 [Compound 4, xanthopurpurin] |  |  |  |  |  | 21.4 ± 0.99 µM |  | 23.7 ± 1.71 µM |  | 15.8 ± 1 µM |  | 14.7 ± 1.45 µM |  | 67.9 ± 1.02 µM
CC(=O)OC[C@H]1O[C@@H](Oc2cc3c(c(O)c2C)C(=O)c2ccc(O)cc2C3=O)[C@H](O[C@H]2O[C@@H](C)[C@H](O)[C@@H](O)[C@H]2O)[C@@H](O)[C@@H]1O [Compound 1, 2-methyl-1,3,6-trihydroxy-9,10-anthraquinone-3-O-(6′-O-acetyl)-α-rhamnosyl(1 → 2)-β-glucoside] |  |  |  |  |  | 91 ± 1.88 µM | 2.11 | 48.68 ± 0.1 µM | 3.95 | 65.5 ± 1.1 µM | 2.94 | 49.4 ± 0.78 µM | 3.89 | 192.3 ± 0.49 µM
